From patent US20100278730A1, “Non-Invasive Molecular Imaging of Cellular Histone Deacetylase Substrate Using Magnetic Resonance Spectroscopy (MRS) or Positron Emission Tomography (PET)” (priority 2007, published 2010) come the findings set out here.

Each structure is given as a SMILES string.

In one data set the test system is HDACs 1-11. Description: HDAC fluorimetric assay. Format: biochemical. As to conditions: for histone deacetylase activity in the presence of the substrate: FIG. 21, BPS#3 as control. The method, then: Material: Assay buffer, Assay developer, HDAC substrate
(§1) Source: BPS Bioscience, Inc.
Add reaction mixtures to low binding black plate. These include: HDAC assay buffer, Bovine serum albumin solution, HDAC substrate, and HDAC enzymes.
Incubate at 37° C. for 30 minutes.
(§2) Stop the reaction by addition of HDAC Assay developer (2×) and incubate plate at room temperature for 15 minutes.
(§3) Read sample in a microtiter-plate reading fluorimeter at excitation wavelength in the range of 350-380 nm and detect in emission range of 440-460 nm.

The test system of another data set is sirtuins 1-5. Briefly: Sirtuin fluorimetric assay. Format: biochemical. The method, then:
Sirtuin Fluorimetric Assay
Material: substrate available from manufacturer
as §1
Add reaction mixtures to low binding black plate. These include: Sirtuin, HDAC assay buffer, Bovine serum albumin solution, NAD+ solution and Sirtuin substrate.
Incubate at 37° C. for 30 minutes
as §2, §3

In data set [1] the test system is MDA-MB435 human breast carcinoma cells. Description: In vitro uptake study of [18F]-FAHA in human breast carcinoma cell line. Format: cell-based. As for the experimental part: MDA-MB435 human breast carcinoma cells were grown into flasks with D-MEM/F-12 medium supplemented with 10% FBS and antibiotics at 37° C. in humidified atmosphere with 5% CO2. Cells were kept in the log phase proliferative activity. 5×10^6 of cells in 15 mL of medium were distributed into each tissue culture dish and were incubated at least for 24 hours.
Next day, culture medium was replaced to fresh medium again and was incubated for 3 hours. Then […] of [^18F]-FAHA in […] of saline was added to each dish followed by incubation for 5, 10, 15, 30, 60, and 120 min. At each time point, cells were scraped and were centrifuged at 3,000 rpm for 1 min. After centrifugation, […] of supernatant medium and cells were weighed and their radioactivity measured using a gamma counter. Then the ratio of radioactivity between 1 gram of cells and 1 gram of medium was calculated.
For an inhibition study, cells were incubated in medium with […] of SAHA from 1 hour before adding [^18F]-FAHA.

Data set [2] has as its system HDAC activity in rat brain. Description: PET imaging of HDAC activity in rat brain using [18F]-FAHA (Example 6). Format: in vivo. The method, then:
Methods: [^18F]-FAHA was synthesized according to the methods developed in our laboratory in high specific activity. Imaging studies with [^18F]-FAHA were conducted in five rats using a PET scanner under isoflurane inhalation anesthesia. The animals were injected intravenously with 37 MBq of [^18F]-FAHA and dynamic scanning PET (0-60 min) was performed. During the imaging session, the rats were anesthetized with 1-1.5 vol % isoflurane/oxygen inhalation and continuously heated with a heating lamp. Two days after the initial study, another PET imaging was performed with [^18F]-FAHA using an […] (SAHA). Each animal was given SAHA (50 mg/kg), intraperitoneally 1 hour prior to injection of the [^18F]-FAHA.
In Table 6, “baseline” refers to brain uptake of FAHA without blocking by SAHA.

The test system of data set [3] is MB435 human breast carcinoma tumor. Description: PET of [18F]-FAHA in MB435 carcinoma-bearing nu/nu rats, with Gjedde-Patlak analysis (Example 5). Format: in vivo, rat. As for the experimental part:
MB435 human breast carcinoma cells were grown as described in Example 3, above. About 10×10^6 MB435 cells were injected subcutaneously in female nu/nu rat. When tumor size was 15 mm in diameter, PET imaging studies with [^18F]-FAHA were conducted in five rats using microPET R4 (Concorde). The animals were injected intravenously with […] (1mCi) of [^18F]-FAHA and dynamic scanning (0-60 min) was performed. During the imaging session the rats were anesthetized with 2.0 vol % isoflurane/oxygen inhalation and continuously heated with a heating lamp.
Two days after the initial study, another [^18F]-FAHA PET imaging with an […] (SAHA) was performed. The animals were given SAHA (100 mg/kg) intraperitoneally 1 hour prior to injection of the [^18F]-FAHA.
Both a Gjedde-Patlak plot and a Logan plot were taken. […] The linearity of the plot was checked and a plasma/reference region used as an input. […]

The subject of the next data set is MB435 tumor xenografts. Description: PET of [18F]-FAHA in MB435 tumor xenograft-bearing nude rats (second Example 4). Format: in vivo, rat. The method, then: Methods: [^18F]-FAHA was synthesized with high specific activity according to a method developed at M. D. Anderson Cancer Center. Human breast cancer cells, cell line MB435, grown as described in Example 3, were used to grow tumor xenografts in nude rats. Ten million cancer cells were injected subcutaneously in the neck area of six nude rats. When tumors were 1 cm in diameter, animals were anesthetized, injected with [^18F]-FAHA (37 MBq) and PET imaging was performed (dynamic) up to 60 min post-injection. Two days after the initial imaging, another PET imaging with [^18F]-FAHA was performed using a […] (SAHA). The animals were given SAHA (50 mg/kg) intraperitoneally 1 hour prior to injection of the radiotracer.

The mark [4] stands for this setting: 5 min post-injection, without SAHA.
The mark [5] stands for this setting: 60 min post-injection, with SAHA 50 mg/kg i.p. 1 hour prior.
The mark [6] stands for this setting: 60 min post-injection, without SAHA.
[7] abbreviates: 30 min post-injection, with SAHA 50 mg/kg i.p. 1 hour prior.
Setting [8] is: 30 min post-injection, without SAHA.
The mark [9] stands for this setting: during 60 min post-injection, without SAHA.

In the case of `O=C(CCCCCNC(=O)C(F)(F)F)Nc1ccccc1` [3FAHA, 6-(trifluoroacetamido)-1-hexanoicanilide], the “qualitative rank of the specificity of various HDACs for the substrate” value in the data set on HDACs 1-11 is given as “HDAC-9>HDAC-7>HDAC-5>HDAC-8>HDAC-4>HDAC-11”.

`CC(C)CC(=O)NCCCCCC(=O)Nc1ccccc1` [Iso-PAHA, 6-(isopropylacetamido)-1-hexanoicanilide]: in the data set on sirtuins 1-5, the “qualitative rank of the specificity of various sirtuins (and HDAC-3) for the substrate” value is recorded as “Sirt-2>Sirt-5>Sirt-4>Sirt-3>Sirt-1”. In addition, the “histone deacetylase activity in the presence of the substrate” value (from here on “histone deacetylase activity”) in the data set on HDACs 1-11 was “inhibited the activity of all HDACs”.

Regarding `O=C(Cc1ccccc1)NCCCCCC(=O)Nc1ccccc1` [PhAHA, 6-(phenylacetamido)-1-hexanoicanilide], the “qualitative rank of the specificity of various sirtuins (and HDAC-3) for the substrate” value in the data set on sirtuins 1-5 was “Sirt-2 >>Sirt-3>Sirt-4>Sirt-5>Sirt-1”. Also, the “histone deacetylase activity” value with HDACs 1-11 is listed as “inhibited the activity of all HDACs”.

With `O=C(CF)NCCCCCC(=O)Nc1ccccc1` [FAHA, 6-(fluoroacetamido)-1-hexanoicanilide], the “qualitative rank of the specificity of various HDACs for the substrate” value in the data set on HDACs 1-11 is reported as “HDAC-9>HDAC-5>HDAC-8>HDAC-4>HDAC-6>HDAC-1”.

Take `O=C(C[18F])NCCCCCC(=O)Nc1ccccc1` [[^18F]-FAHA, 6-([^18F]-fluoroacetamide)-1-hexanoicanilide]: the “ratio of radioactivity between 1 gram of cells and 1 gram of medium” value in data set [1] (Baseline, 5 min) is 1.95 +/− 0.13; in data set [1] (Baseline, 10 min), 2.09 +/− 0.15; in data set [1] (Baseline, 15 min), 2.11 +/− 0.12; in data set [1] (Baseline, 30 min), 2.02 +/− 0.11; in data set [1] (Baseline, 60 min), 1.84 +/− 0.14; in data set [1] (Baseline, 120 min), 1.38 +/− 0.12. In addition, the “ratio of radioactivity between 1 gram of cells and 1 gram of medium” value in data set [1] (Inhibition: 10 mM of SAHA from 1 hour before [18F]-FAHA, 5 min) is reported as 1.16 +/− 0.03; in data set [1] (Inhibition: 10 mM of SAHA from 1 hour before [18F]-FAHA, 10 min) it was 1.16 +/− 0.01; in data set [1] (Inhibition: 10 mM of SAHA from 1 hour before [18F]-FAHA, 15 min), 1.16 +/− 0.03; in data set [1] (Inhibition: 10 mM of SAHA from 1 hour before [18F]-FAHA, 30 min) it was 1.16 +/− 0.04; in data set [1] (Inhibition: 10 mM of SAHA from 1 hour before [18F]-FAHA, 60 min), 1.15 +/− 0.01; in data set [1] (Inhibition: 10 mM of SAHA from 1 hour before [18F]-FAHA, 120 min) it was 1.13 +/− 0.02. For the same compound, the Brain uptake in data set [2] (5 min post-injection, with SAHA 50 mg/kg i.p. 1 hour prior) was determined as 0.33 ± 0.05 % ID/g; in data set [2] (setting [4]), 0.44 ± 0.03 % ID/g; in data set [2] (setting [5]) it was 0.23 ± 0.04 % ID/g; in data set [2] (setting [6]) it was 0.40 ± 0.03 % ID/g. Moreover, the “brain-to-muscle (B/M) ratio” value was determined as 2.56 ± 0.33 in data set [2] (setting [4]), 1.03 ± 0.08 in data set [2] (setting [5]) and 2.10 ± 0.63 in data set [2] (setting [6]). The “brain-to muscle ratio reached” value in data set [2] (at 5 min post-injection, without SAHA) amounted to 1.95. Further, the brain uptake reached in data set [2] (without SAHA) stood at 0.44 % injected dose/g. For the same compound, the Tumor-to-muscle uptake ratio in data set [3] (Baseline, 5 min) is on record as 2.01 +/− 0.57; in data set [3] (Baseline, 10 min) it was 2.05 +/− 0.76; in data set [3] (Baseline, 15 min), 2.08 +/− 0.83; in data set [3] (Baseline, 30 min), 2.20 +/− 0.95; in data set [3] (Baseline, 60 min), 2.38 +/− 1.11; in data set [3] (Inhibition: SAHA 100 mg/kg i.p. 1 hour prior, 5 min), 1.43 +/− 0.15. Besides, the Tumor-to-muscle uptake ratio is listed as 1.50 +/− 0.15 in data set [3] (Inhibition: SAHA 100 mg/kg i.p. 1 hour prior, 10 min); 1.46 +/− 0.16 in data set [3] (Inhibition: SAHA 100 mg/kg i.p. 1 hour prior, 15 min); 1.47 +/− 0.12 in data set [3] (Inhibition: SAHA 100 mg/kg i.p. 1 hour prior, 30 min); 1.47 +/− 0.11 in data set [3] (Inhibition: SAHA 100 mg/kg i.p. 1 hour prior, 60 min). Moreover, the Tumor uptake in the data set with MB435 tumor xenografts (setting [7]) was determined as 0.70 ± 0.04 % ID/g; in the data set on MB435 tumor xenografts (setting [8]), 0.78 ± 0.13 % ID/g; with MB435 tumor xenografts (setting [5]), 0.71 ± 0.02 % ID/g; in the data set with MB435 tumor xenografts (setting [6]), 0.79 ± 0.13 % ID/g. Moreover, the “tumor-to-muscle (T/M) ratio” value with MB435 tumor xenografts (setting [7]) was 1.52 ± 0.13; in the data set with MB435 tumor xenografts (setting [8]) it was 1.80 ± 0.17; in the data set on MB435 tumor xenografts (setting [5]), 1.64 ± 0.10; in the data set on MB435 tumor xenografts (setting [6]), 1.95 ± 0.19. In addition, in the data set with MB435 tumor xenografts (setting [9]), the tumor uptake achieved entry is listed as “approximately 0.8 % injected dose (ID)/g”. Moreover, the “tumor-to muscle ratio reached” value in the data set with MB435 tumor xenografts (setting [9]) was determined as 1.95.

`CCCC(=O)NCCCCCC(=O)Nc1ccccc1` [PAHA, 6-(ethylacetamido)-1-hexanoicanilide]: the “qualitative rank of the specificity of various sirtuins (and HDAC-3) for the substrate” value in the data set with sirtuins 1-5 is listed as “Sirt-2>Sirt-5>Sirt-4>Sirt-3>Sirt-1 >>HDAC-3”. The “histone deacetylase activity” value in the data set on HDACs 1-11 was “inhibited the activity of all HDACs”.
